# Experimental data reported in the kinase profiling compilation of Christmann-Franck et al. (2016).
# Assays:
# Test in all cases: radiometric filter-binding kinase assay, Kinase HotSpot
# Conditions in all cases: compound 0.5 µM; ATP 10 µM
# WNK2 (human) = WNK2 (human) (UniProt Q9Y3S1)
# PRKACA (human) = PRKACA (human) (UniProt P17612)
# TEC (human) = TEC (human) (UniProt P42680)
# KDR (human) = KDR (human) (UniProt P35968)
# ROS1 (human) = ROS1 (human) (UniProt P08922)
# ULK2 (human) = ULK2 (human) (UniProt Q8IYT8)
# CDC42BPB (human) = CDC42BPB (human) (UniProt Q9Y5S2)
# JAK2 JH1 JH2 (human) = JAK2 JH1 JH2 (human) (UniProt O60674)
# STK17A (human) = STK17A (human) (UniProt Q9UEE5)
# AURKC (human) = AURKC (human) (UniProt Q9UQB9)
# OXSR1 (human) = OXSR1 (human) (UniProt O95747)
# HIPK3 (human) = HIPK3 (human) (UniProt Q9H422)
# MAPK1 (human) = MAPK1 (human) (UniProt P28482)
# IKBKB (human) = IKBKB (human) (UniProt O14920)
# CDK1 CCNA2 (human) = CDK1 CCNA2 (human) (UniProt P06493+P20248)
# CDK2 CCNE1 (human) = CDK2 CCNE1 (human) (UniProt P24941+P24864)
# FLT1 (human) = FLT1 (human) (UniProt P17948)
# ADRBK1 (human) = ADRBK1 (human) (UniProt P25098)
# CAMK2G (human) = CAMK2G (human) (UniProt Q13555)
# STK24 (human) = STK24 (human) (UniProt Q9Y6E0)
# ULK1 (human) = ULK1 (human) (UniProt O75385)
# GRK7 (human) = GRK7 (human) (UniProt Q8WTQ7)
# MAP3K14 (human) = MAP3K14 (human) (UniProt Q99558)
# HIPK1 (human) = HIPK1 (human) (UniProt Q86Z02)
# ITK (human) = ITK (human) (UniProt Q08881)
# CSK (human) = CSK (human) (UniProt P41240)
# NEK9 (human) = NEK9 (human) (UniProt Q8TD19)
# PRKCB2 (human) = PRKCB2 (human) (UniProt P05771)
# GRK4 (human) = GRK4 (human) (UniProt P32298)
# MAP3K3 (human) = MAP3K3 (human) (UniProt Q99759)
# MLTK (human) = MLTK (human) (UniProt Q9NYL2)
# PHKG2 (human) = PHKG2 (human) (UniProt P15735)
# TEK (human) = TEK (human) (UniProt Q02763)
# GSK3B (human) = GSK3B (human) (UniProt P49841)
# AKT2 (human) = AKT2 (human) (UniProt P31751)
# MAPKAPK2 (human) = MAPKAPK2 (human) (UniProt P49137)
# CDK4 CCND1 (human) = CDK4 CCND1 (human) (UniProt P24385+P11802)
# TAOK3 (human) = TAOK3 (human) (UniProt Q9H2K8)
# BRSK2 (human) = BRSK2 (human) (UniProt Q8IWQ3)
# MAPK8 (human) = MAPK8 (human) (UniProt P45983)
# CHEK1 (human) = CHEK1 (human) (UniProt O14757)
# MAP3K8 (human) = MAP3K8 (human) (UniProt P41279)
# CHEK1 (human), sequence (O14757 whole entry, looked up): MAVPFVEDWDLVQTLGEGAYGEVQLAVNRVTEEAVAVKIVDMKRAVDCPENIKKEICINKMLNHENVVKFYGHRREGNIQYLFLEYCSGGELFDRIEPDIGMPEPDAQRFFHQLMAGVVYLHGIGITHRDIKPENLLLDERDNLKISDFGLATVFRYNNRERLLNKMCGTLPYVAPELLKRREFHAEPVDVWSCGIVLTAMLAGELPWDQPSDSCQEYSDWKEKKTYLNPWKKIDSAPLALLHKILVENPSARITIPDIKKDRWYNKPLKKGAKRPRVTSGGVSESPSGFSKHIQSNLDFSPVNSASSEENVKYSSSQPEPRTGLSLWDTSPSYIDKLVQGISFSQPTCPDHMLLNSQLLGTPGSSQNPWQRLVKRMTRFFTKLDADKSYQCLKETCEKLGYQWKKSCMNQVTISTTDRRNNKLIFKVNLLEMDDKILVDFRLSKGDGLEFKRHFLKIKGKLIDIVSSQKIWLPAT
# FLT1 (human), sequence (P17948 whole entry, looked up): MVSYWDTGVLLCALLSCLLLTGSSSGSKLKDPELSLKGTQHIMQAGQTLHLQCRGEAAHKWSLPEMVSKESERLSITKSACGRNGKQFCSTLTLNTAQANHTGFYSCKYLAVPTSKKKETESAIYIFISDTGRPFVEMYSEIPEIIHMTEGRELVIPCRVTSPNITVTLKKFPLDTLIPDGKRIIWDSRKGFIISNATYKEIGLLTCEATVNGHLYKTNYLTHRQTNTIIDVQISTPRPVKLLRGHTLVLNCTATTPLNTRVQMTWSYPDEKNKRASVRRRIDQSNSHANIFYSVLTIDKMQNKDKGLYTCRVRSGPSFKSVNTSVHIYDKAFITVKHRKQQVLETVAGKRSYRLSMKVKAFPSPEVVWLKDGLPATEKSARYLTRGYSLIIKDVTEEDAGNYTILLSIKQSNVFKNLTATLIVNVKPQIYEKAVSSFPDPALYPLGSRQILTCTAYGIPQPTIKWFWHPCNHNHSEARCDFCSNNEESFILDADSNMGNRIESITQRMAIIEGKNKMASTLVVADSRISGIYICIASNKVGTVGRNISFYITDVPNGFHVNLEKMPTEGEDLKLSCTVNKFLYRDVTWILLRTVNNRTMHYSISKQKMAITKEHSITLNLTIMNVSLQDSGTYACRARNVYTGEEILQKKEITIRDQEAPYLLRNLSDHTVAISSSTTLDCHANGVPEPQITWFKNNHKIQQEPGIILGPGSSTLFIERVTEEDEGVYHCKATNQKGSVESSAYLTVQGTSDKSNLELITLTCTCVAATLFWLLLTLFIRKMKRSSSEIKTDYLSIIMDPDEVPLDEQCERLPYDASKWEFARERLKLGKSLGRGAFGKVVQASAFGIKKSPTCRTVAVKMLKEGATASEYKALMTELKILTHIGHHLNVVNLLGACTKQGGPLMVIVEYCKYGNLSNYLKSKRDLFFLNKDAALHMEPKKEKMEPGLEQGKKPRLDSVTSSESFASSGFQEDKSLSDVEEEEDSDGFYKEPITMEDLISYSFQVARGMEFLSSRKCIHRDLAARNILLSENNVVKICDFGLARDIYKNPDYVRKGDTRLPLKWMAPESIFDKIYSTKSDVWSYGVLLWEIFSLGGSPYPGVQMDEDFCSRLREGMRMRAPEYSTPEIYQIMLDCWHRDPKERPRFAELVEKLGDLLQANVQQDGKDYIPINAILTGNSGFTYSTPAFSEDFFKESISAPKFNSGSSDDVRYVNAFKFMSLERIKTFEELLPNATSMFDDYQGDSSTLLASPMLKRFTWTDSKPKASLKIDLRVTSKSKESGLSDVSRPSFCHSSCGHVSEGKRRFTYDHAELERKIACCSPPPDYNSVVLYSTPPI
# AURKC (human), sequence (Q9UQB9 whole entry, looked up): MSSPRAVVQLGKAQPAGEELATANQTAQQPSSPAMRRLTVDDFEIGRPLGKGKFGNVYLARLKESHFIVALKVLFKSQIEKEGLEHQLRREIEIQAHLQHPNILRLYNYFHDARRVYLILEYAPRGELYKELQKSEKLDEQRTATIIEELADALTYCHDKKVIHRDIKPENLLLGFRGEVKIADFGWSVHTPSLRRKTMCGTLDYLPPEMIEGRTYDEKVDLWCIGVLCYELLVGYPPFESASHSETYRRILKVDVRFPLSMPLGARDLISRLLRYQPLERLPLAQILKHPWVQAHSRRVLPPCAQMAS
# HIPK3 (human), sequence (Q9H422 whole entry, looked up): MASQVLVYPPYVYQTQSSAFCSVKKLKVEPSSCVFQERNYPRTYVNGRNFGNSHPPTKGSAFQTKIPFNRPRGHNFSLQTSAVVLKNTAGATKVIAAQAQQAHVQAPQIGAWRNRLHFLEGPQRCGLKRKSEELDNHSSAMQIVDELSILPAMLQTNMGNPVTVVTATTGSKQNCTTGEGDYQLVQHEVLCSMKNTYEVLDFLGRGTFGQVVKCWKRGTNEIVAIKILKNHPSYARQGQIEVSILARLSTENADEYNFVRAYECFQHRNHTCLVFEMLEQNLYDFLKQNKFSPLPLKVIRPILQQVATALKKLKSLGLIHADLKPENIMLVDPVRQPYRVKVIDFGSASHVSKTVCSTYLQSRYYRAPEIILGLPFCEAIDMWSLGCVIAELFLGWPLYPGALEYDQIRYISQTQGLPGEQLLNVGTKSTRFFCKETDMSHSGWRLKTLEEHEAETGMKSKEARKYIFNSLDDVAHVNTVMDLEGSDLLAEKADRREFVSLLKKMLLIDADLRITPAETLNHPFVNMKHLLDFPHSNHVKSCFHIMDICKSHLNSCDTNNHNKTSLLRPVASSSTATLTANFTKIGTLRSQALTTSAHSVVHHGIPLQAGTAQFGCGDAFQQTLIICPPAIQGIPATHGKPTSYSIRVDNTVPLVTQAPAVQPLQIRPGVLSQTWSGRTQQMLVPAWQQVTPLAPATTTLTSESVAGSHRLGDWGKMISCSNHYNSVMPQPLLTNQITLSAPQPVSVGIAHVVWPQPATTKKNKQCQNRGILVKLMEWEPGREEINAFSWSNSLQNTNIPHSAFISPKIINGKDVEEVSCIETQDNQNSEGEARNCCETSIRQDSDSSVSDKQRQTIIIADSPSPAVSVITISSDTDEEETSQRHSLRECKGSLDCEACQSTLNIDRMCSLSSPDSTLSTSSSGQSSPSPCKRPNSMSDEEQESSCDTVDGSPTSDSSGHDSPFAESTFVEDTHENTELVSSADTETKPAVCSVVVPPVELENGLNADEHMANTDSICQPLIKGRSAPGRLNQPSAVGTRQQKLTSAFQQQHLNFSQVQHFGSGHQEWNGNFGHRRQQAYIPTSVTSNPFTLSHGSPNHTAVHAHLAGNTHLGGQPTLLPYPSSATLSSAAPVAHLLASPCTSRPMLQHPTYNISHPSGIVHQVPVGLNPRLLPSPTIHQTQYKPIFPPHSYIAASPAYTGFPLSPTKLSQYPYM
# AKT2 (human), sequence (P31751 whole entry, looked up): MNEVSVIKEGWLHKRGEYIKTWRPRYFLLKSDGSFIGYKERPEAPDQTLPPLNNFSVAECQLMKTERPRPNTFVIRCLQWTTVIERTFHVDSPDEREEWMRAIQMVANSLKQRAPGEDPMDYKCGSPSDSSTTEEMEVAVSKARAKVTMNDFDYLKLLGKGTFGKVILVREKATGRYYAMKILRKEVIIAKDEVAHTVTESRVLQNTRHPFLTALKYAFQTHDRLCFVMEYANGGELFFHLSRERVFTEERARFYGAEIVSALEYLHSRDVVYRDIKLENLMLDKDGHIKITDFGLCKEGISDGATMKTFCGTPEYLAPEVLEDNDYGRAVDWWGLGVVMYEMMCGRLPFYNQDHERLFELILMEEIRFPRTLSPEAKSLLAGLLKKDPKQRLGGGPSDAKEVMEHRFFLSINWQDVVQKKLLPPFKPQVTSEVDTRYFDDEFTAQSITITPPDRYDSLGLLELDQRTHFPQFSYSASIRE
# ULK1 (human), sequence (O75385 whole entry, looked up): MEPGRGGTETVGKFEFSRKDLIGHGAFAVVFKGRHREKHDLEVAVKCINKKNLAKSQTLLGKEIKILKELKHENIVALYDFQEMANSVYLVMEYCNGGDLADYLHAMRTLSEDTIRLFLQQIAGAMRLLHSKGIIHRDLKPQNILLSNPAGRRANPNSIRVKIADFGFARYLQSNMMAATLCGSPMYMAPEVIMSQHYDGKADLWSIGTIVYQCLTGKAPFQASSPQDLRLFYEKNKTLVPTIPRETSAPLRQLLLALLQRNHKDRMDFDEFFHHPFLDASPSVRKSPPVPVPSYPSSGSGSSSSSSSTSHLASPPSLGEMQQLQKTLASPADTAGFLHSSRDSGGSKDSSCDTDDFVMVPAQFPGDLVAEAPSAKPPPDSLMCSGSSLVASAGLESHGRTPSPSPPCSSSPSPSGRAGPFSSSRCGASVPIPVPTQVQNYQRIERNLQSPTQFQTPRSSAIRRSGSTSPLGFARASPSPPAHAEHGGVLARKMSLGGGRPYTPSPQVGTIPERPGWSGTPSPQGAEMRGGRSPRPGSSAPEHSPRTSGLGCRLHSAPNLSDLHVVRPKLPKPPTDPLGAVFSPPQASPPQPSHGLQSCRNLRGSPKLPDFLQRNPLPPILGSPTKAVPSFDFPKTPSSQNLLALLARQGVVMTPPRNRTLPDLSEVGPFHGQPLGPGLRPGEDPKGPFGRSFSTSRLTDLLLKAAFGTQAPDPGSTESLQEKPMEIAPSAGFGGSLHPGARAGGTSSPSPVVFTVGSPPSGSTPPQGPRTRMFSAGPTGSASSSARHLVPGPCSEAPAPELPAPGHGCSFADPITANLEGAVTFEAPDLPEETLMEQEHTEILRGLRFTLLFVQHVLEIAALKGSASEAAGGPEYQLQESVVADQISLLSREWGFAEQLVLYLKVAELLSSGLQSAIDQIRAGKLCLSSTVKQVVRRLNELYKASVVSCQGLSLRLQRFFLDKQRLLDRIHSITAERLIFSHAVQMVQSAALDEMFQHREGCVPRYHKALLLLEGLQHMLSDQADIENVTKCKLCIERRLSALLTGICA
smiles,measurement,setting,value
FC(F)(F)c1ccc(/C=C/c2nc(COc3ccc(CCCCn4ccnn4)cc3)co2)cc1,residual activity,WNK2 (human),95.9%
same,residual activity,PRKACA (human),101%
same,residual activity,TEC (human),86.4%
same,residual activity,KDR (human),106%
same,residual activity,ROS1 (human),93.3%
same,residual activity,ULK2 (human),99.6%
same,residual activity,CDC42BPB (human),100%
same,residual activity,JAK2 JH1 JH2 (human),98.9%
same,residual activity,STK17A (human),103%
same,residual activity,AURKC (human),97.1%
same,residual activity,OXSR1 (human),99.7%
same,residual activity,HIPK3 (human),100%
same,residual activity,MAPK1 (human),88.6%
same,residual activity,IKBKB (human),98.6%
same,residual activity,CDK1 CCNA2 (human),92.6%
same,residual activity,CDK2 CCNE1 (human),96.3%
same,residual activity,FLT1 (human),95.5%
same,residual activity,ADRBK1 (human),113%
same,residual activity,CAMK2G (human),99%
same,residual activity,STK24 (human),101%
same,residual activity,ULK1 (human),87.2%
same,residual activity,GRK7 (human),97.8%
same,residual activity,MAP3K14 (human),95.8%
same,residual activity,HIPK1 (human),101%
same,residual activity,ITK (human),102%
same,residual activity,CSK (human),106%
same,residual activity,NEK9 (human),95.5%
same,residual activity,PRKCB2 (human),93.1%
same,residual activity,GRK4 (human),102%
same,residual activity,MAP3K3 (human),112%
same,residual activity,MLTK (human),98.5%
same,residual activity,PHKG2 (human),93.5%
same,residual activity,TEK (human),95.8%
same,residual activity,GSK3B (human),100%
same,residual activity,AKT2 (human),99.9%
same,residual activity,MAPKAPK2 (human),97.9%
same,residual activity,CDK4 CCND1 (human),96.8%
same,residual activity,TAOK3 (human),93%
same,residual activity,BRSK2 (human),99.6%
same,residual activity,MAPK8 (human),105%
same,residual activity,CHEK1 (human),108%
same,residual activity,MAP3K8 (human),90.8%
Cn1cc(/C=C2\C(=O)Nc3ccc(S(N)(=O)=O)cc32)c2ccccc21,residual activity,WNK2 (human),97.7%
same,residual activity,PRKACA (human),104%
same,residual activity,TEC (human),157%
same,residual activity,KDR (human),74.3%
same,residual activity,ROS1 (human),82.2%
same,residual activity,ULK2 (human),72.3%
same,residual activity,CDC42BPB (human),114%
same,residual activity,JAK2 JH1 JH2 (human),58.4%
same,residual activity,STK17A (human),57.5%
same,residual activity,AURKC (human),37.1%
same,residual activity,OXSR1 (human),93.7%
same,residual activity,HIPK3 (human),105%
same,residual activity,MAPK1 (human),98.2%
same,residual activity,IKBKB (human),101%
same,residual activity,CDK1 CCNA2 (human),56.9%
same,residual activity,CDK2 CCNE1 (human),77.9%
same,residual activity,FLT1 (human),70.1%
same,residual activity,ADRBK1 (human),100%
same,residual activity,CAMK2G (human),91.9%
same,residual activity,STK24 (human),80.2%
same,residual activity,ULK1 (human),27.5%
same,residual activity,GRK7 (human),20.9%
same,residual activity,MAP3K14 (human),123%
same,residual activity,HIPK1 (human),97.2%
same,residual activity,ITK (human),21.4%
same,residual activity,CSK (human),89.3%
same,residual activity,NEK9 (human),67.3%
same,residual activity,PRKCB2 (human),86.7%
same,residual activity,GRK4 (human),40.4%
same,residual activity,MAP3K3 (human),80.7%
same,residual activity,MLTK (human),95%
same,residual activity,PHKG2 (human),52%
same,residual activity,TEK (human),95.8%
same,residual activity,GSK3B (human),98.4%
same,residual activity,AKT2 (human),88.6%
same,residual activity,MAPKAPK2 (human),101%
same,residual activity,CDK4 CCND1 (human),106%
same,residual activity,TAOK3 (human),60.2%
same,residual activity,BRSK2 (human),65.5%
same,residual activity,MAPK8 (human),108%
same,residual activity,CHEK1 (human),19.5%
same,residual activity,MAP3K8 (human),96.8%
COc1cccc(-c2cc(=O)c3ccccc3o2)c1N,residual activity,WNK2 (human),122%
same,residual activity,PRKACA (human),87.7%
same,residual activity,TEC (human),99.2%
same,residual activity,KDR (human),81.3%
same,residual activity,ROS1 (human),97.5%
same,residual activity,ULK2 (human),109%
same,residual activity,CDC42BPB (human),94.8%
same,residual activity,JAK2 JH1 JH2 (human),104%
same,residual activity,STK17A (human),96.9%
same,residual activity,AURKC (human),95.3%
same,residual activity,OXSR1 (human),91.2%
same,residual activity,HIPK3 (human),101%
same,residual activity,MAPK1 (human),97.1%
same,residual activity,IKBKB (human),92.5%
same,residual activity,CDK1 CCNA2 (human),83.8%
same,residual activity,CDK2 CCNE1 (human),95.3%
same,residual activity,FLT1 (human),87.7%
same,residual activity,ADRBK1 (human),99.6%
same,residual activity,CAMK2G (human),96.6%
same,residual activity,STK24 (human),108%
same,residual activity,ULK1 (human),104%
same,residual activity,GRK7 (human),103%
same,residual activity,MAP3K14 (human),108%
same,residual activity,HIPK1 (human),104%
same,residual activity,ITK (human),96.5%
same,residual activity,CSK (human),83.7%
same,residual activity,NEK9 (human),102%
same,residual activity,PRKCB2 (human),102%
same,residual activity,GRK4 (human),104%
same,residual activity,MAP3K3 (human),83%
same,residual activity,MLTK (human),103%
same,residual activity,PHKG2 (human),117%
same,residual activity,TEK (human),93.1%
same,residual activity,GSK3B (human),95.7%
same,residual activity,AKT2 (human),97.4%
same,residual activity,MAPKAPK2 (human),102%
same,residual activity,CDK4 CCND1 (human),100%
same,residual activity,TAOK3 (human),77%
same,residual activity,BRSK2 (human),98%
same,residual activity,MAPK8 (human),95.3%
same,residual activity,CHEK1 (human),103%
same,residual activity,MAP3K8 (human),85.7%
O=C(O)c1ccc2c3c1cccc3c(=O)n1c3ccccc3nc21,residual activity,WNK2 (human),106%
same,residual activity,PRKACA (human),99.4%
same,residual activity,TEC (human),123%
same,residual activity,KDR (human),101%
same,residual activity,ROS1 (human),95.2%
same,residual activity,ULK2 (human),93.9%
same,residual activity,CDC42BPB (human),109%
same,residual activity,JAK2 JH1 JH2 (human),86.7%
same,residual activity,STK17A (human),73.4%
same,residual activity,AURKC (human),88%
same,residual activity,OXSR1 (human),104%
same,residual activity,HIPK3 (human),103%
same,residual activity,MAPK1 (human),100%
same,residual activity,IKBKB (human),109%
same,residual activity,CDK1 CCNA2 (human),78.1%
same,residual activity,CDK2 CCNE1 (human),90.9%
same,residual activity,FLT1 (human),86.5%
same,residual activity,ADRBK1 (human),99.3%
same,residual activity,CAMK2G (human),96.5%
same,residual activity,STK24 (human),87.6%
same,residual activity,ULK1 (human),83.5%
same,residual activity,GRK7 (human),102%
same,residual activity,MAP3K14 (human),94.8%
same,residual activity,HIPK1 (human),104%
same,residual activity,ITK (human),97.7%
same,residual activity,CSK (human),101%
same,residual activity,NEK9 (human),94.1%
same,residual activity,PRKCB2 (human),97%
same,residual activity,GRK4 (human),95.5%
same,residual activity,MAP3K3 (human),81%
same,residual activity,MLTK (human),100%
same,residual activity,PHKG2 (human),94.7%
same,residual activity,TEK (human),102%
same,residual activity,GSK3B (human),100%
same,residual activity,AKT2 (human),101%
same,residual activity,MAPKAPK2 (human),102%
same,residual activity,CDK4 CCND1 (human),106%
same,residual activity,TAOK3 (human),93.1%
same,residual activity,BRSK2 (human),90.4%
same,residual activity,MAPK8 (human),98%
same,residual activity,CHEK1 (human),101%
same,residual activity,MAP3K8 (human),88.3%
